Measurements from patent US20050086714A1, “Eucalyptus transformation method” (AGRIGENESIS BIOSCIENCES LIMITED, priority 2003, published 2005).

What was measured:
Type in all cases: cell-based, Eucalyptus grandis
[1] = test system: wild type internode explants of E. grandis clone 8 or C101; assay: Effect of kanamycin level on shoot regeneration from wild type explants
Description: A range of kanamycin concentrations (0, 5, 10, 15, 20, 30, 40 and 50 mg/l) were then tested in four experiments to determine the minimum level of kanamycin for inhibiting regeneration from the wild type internode explants (Table 5).
Fifty internode explants of the E. grandis clone 8 or C101 were cultured on each of the eight media consisting of EuCo14 supplemented with kanamycin at eight different concentrations, namely 0, 5, 10, 15, 20, 30, 40 and 50 mg/l. […] An excessive level of kanamycin kills non-transformed cells in the explant early in the selection stages. This will reduce the regeneration from transformed cells which would be surrounded by these dead non-transformed cells.

[2] = test system: internode explants of Eucalyptus clone C101 co-cultivated with LBA4404 containing pART69; assay: Effect of kanamycin level on shoot regeneration from co-cultivated explants, Exp I
Description: (§1) Internode segment explants were prepared as described in Example 2 above. The explants were placed on a co-cultivation medium in a sideways orientation. The co-cultivation medium was usually EuCo19 (Table 2), although a similar medium could be employed. EuCo19 was based on the regeneration medium EuCo14, supplemented with 100 μM of acetosyringone. In addition, EuCo19 was solidified with gelrite while EuCo14 was solidified with agar. After 50 internode explants were placed on one medium plate, 1-2 μl of Agrobacterium cells were applied to each internode. The plate was then sealed and incubated at 22° C. under low intensity light (300 lux) for three days.
(§2) After 3 days of co-cultivation, the explants were transferred to regeneration/selection medium containing 20-50 mg/l kanamycin and 250 mg/l timentin. In a number of experiments, 10-30 explants from each treatment were taken from the selection medium at day 4 on the medium and tested for transient transgene expression using a GUS staining procedure described in Example 3.6 below.
(§3) In a follow-up experiment, 425 internode explants of the E. grandis clone C101 were co-cultivated with LBA4404 containing the binary vector pART69 and then transferred to selection media containing five different concentrations of kanamycin. The regeneration efficiencies were 100%, 17%, 8%, 3% and 1% from kanamycin concentrations of 0, 20, 30, 40 and 50 mg/l, respectively.

[3] = test system: co-cultivated internode explants of Eucalyptus clone Eg8; assay: Effect of kanamycin level on shoot regeneration from co-cultivated explants, Exp II
Description: as §1, §2, §3

For NC[C@H]1O[C@H](O[C@H]2[C@H](O)[C@@H](O[C@H]3O[C@H](CO)[C@@H](O)[C@H](N)[C@H]3O)[C@H](N)C[C@@H]2N)[C@H](O)[C@@H](O)[C@@H]1O [Kanamycin, kanamycin], the “Regeneration Rate” value ([1]; kanamycin 5 mg/L in EuCo14, Exp 3) was 2%, the “Regeneration Rate” value ([1]; kanamycin 5 mg/L in EuCo14, Exp 4) was 10% and the “Regeneration Rate” value ([1]; kanamycin 10 mg/L in EuCo14, Exp 3) was 0%. The “Regeneration Rate” value ([1]; kanamycin 10 mg/L in EuCo14, Exp 4) was 0%, the “Regeneration Rate” value ([1]; kanamycin 15 mg/L in EuCo14, Exp 3) was 0% and the “Regeneration Rate” value ([1]; kanamycin 15 mg/L in EuCo14, Exp 4) was 0%. For the same compound, the “Regeneration Rate” value ([1]; kanamycin 20 mg/L in EuCo14, Exp 1) was 0%, the “Regeneration Rate” value ([1]; kanamycin 20 mg/L in EuCo14, Exp 2) was 4% and the “Regeneration Rate” value ([1]; kanamycin 30 mg/L in EuCo14, Exp 1) was 0%. The “Regeneration Rate” value ([1]; kanamycin 30 mg/L in EuCo14, Exp 2) was 0%, the “Regeneration Rate” value ([1]; kanamycin 40 mg/L in EuCo14, Exp 1) was 0% and the “Regeneration Rate” value ([1]; kanamycin 40 mg/L in EuCo14, Exp 2) was 0%. For the same compound, the “Regeneration Rate” value ([1]; kanamycin 50 mg/L in EuCo14, Exp 1) was 0%, the “Regeneration Rate” value ([1]; kanamycin 50 mg/L in EuCo14, Exp 2) was 0% and the Regeneration Rate ([2]; kanamycin 20 mg/l) was 17%. It also gave a Regeneration Rate ([2]; kanamycin 20 mg/l, listed as kanamycin) of 17%, a Regeneration Rate ([2]; kanamycin 30 mg/l) of 8% and a Regeneration Rate ([2]; kanamycin 30 mg/l, listed as kanamycin) of 8%. The Regeneration Rate ([2]; kanamycin 40 mg/l) was 3%, the Regeneration Rate ([2]; kanamycin 40 mg/l, listed as kanamycin) was 3% and the Regeneration Rate ([2]; kanamycin 50 mg/l) was 1%. The Regeneration Rate ([2]; kanamycin 50 mg/l, listed as kanamycin) was 1%, the Regeneration Rate ([3]; kanamycin 20 mg/l) was 29% and the Regeneration Rate ([3]; kanamycin 30 mg/l) was 12%. The Regeneration Rate ([3]; kanamycin 40 mg/l) was 6% and the Regeneration Rate ([3]; kanamycin 50 mg/l) was 4%.
